Values after ≈ are worked out from the molar mass of the structure shown.

Test [1] concerns the target DNA gyrase (374 kDa Gyr A2B2 subunit from Staphylococcus aureus) (Staphylococcus aureus, UniProt P0A0K8). Description: Gyrase ATPase Assay. To be noted: 10 μM concentration; ATPase assay at 30° C., 0.9 mM ATP; average of duplicate values; read-out: Gyrase Inhibitory Activity (percent inhibition). The test is classed as biochemical. Put shortly:
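S. aureus GyrA2B2 (40 nM) was preincubated 10 min at 30 °C with inhibitor (4% DMSO final) in 100 mM Tris pH 7.6, 1.5 mM MgCl2, 50 mM KCl. Reactions were started with 0.9 mM ATP, and ADP formation was followed via PK/LDH-coupled NADH loss at 340 nm over 10 min. Percent inhibition is the mean of duplicates.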

The test system of the next test is test bacteria. Nature of the test: Susceptibility Testing in Liquid Media (MIC assay). The test is classed as cell-based. The note with it: broth dilution, MHB, 35° C. overnight (16 to 20 hr); organism not given; read-out: MIC (minimal inhibitory concentration) activity level. How it is done: Susceptibility Testing in Liquid Media
Compounds of this invention were also tested for antimicrobial activity by susceptibility testing in liquid media. Such assays were performed within the guidelines of the latest NCCLS document governing such practices: “M7-A5 Methods for dilution Antimicrobial Susceptibility Tests for Bacteria that Grow Aerobically; Approved Standard—Fifth Edition (2000)”. Other publications such as “Antibiotics in Laboratory Medicine” (Edited by V. Lorian, Publishers Williams and Wilkins, 1996) provide essential practical techniques in laboratory antibiotic testing. Essentially, several discrete bacterial colonies (3 to 7) from a freshly streaked plate were transferred to an appropriate rich broth medium such as MHB, supplemented where appropriate for the more fastidious organisms. This was grown overnight to high density followed by a 1 or 2-thousand-fold dilution to give an inoculation density of between 5×10^5 and 5×10^6 CFU per mL. Alternatively, the freshly picked colonies can be incubated at 37° C. for about 4 to 8 hrs until the culture equals or exceeds a turbidity of a 0.5 McFarland standard (approximately 1.5×10^8 cells per mL) and diluted to give the same CFU per mL as above. In a more convenient method, the inoculum was prepared using a commercially available mechanical device (the BBL PROMPT System) that involves touching five colonies directly with a wand, containing crosshatch grooves at its bottom, followed by suspension of the bacteria in an appropriate volume of saline. Dilution to the appropriate inoculum cell density was made from this cell suspension. The broth used for testing consists of MHB supplemented with 50 mg per L of Ca^2+ and 25 mg per L of Mg^2+. Standard dilution panels of control antibiotics were made and stored as in the NCCLS standard M7-A5, the dilution range typically being in the 128 μg per mL to 0.015 μg per mL (by 2-fold serial dilution). The test compounds were dissolved and diluted fresh for experimentation on the same day; the same or similar ranges of concentration as above being used. The test compounds and controls were dispensed into a multiwell plate and test bacteria added such that the final inoculation was approximately 5×10^4 CFU per well and the final volume was 100 μL. The plates were incubated at 35° C. overnight (16 to 20 hr) and checked by eye for turbidity or quantitated with a multiwell plate reader. […] Such determinations were also compared to the appropriate tables contained in the above two publications to ensure that the range of antibacterial activity is within the acceptable range for this standardized assay.
The compound numbers correspond to the compound numbers in Table 1.
For orientation: Broth dilution looks for growth in wells or tubes with falling amounts of substance.

Chain of DNA gyrase (374 kDa Gyr A2B2 subunit from Staphylococcus aureus) (P0A0K8 whole entry): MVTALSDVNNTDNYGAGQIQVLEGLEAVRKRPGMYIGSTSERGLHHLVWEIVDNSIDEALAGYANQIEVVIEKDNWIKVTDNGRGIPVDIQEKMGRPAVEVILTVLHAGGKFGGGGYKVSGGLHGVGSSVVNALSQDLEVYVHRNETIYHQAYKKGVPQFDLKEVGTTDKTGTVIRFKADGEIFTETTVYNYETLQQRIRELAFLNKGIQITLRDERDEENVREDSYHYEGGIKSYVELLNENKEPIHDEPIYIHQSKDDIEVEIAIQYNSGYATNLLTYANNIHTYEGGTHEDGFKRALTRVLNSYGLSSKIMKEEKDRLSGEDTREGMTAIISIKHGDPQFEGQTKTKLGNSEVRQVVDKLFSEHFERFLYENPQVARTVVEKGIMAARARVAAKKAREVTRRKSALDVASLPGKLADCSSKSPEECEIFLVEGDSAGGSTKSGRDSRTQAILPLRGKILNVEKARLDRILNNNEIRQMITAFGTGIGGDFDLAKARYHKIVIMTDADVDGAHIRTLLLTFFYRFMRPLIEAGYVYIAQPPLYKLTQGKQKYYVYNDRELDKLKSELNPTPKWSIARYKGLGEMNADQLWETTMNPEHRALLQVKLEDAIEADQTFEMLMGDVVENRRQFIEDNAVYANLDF
Chain of DNA gyrase (374 kDa Gyr A2B2 subunit from Staphylococcus aureus) (P20831 whole entry, further chain): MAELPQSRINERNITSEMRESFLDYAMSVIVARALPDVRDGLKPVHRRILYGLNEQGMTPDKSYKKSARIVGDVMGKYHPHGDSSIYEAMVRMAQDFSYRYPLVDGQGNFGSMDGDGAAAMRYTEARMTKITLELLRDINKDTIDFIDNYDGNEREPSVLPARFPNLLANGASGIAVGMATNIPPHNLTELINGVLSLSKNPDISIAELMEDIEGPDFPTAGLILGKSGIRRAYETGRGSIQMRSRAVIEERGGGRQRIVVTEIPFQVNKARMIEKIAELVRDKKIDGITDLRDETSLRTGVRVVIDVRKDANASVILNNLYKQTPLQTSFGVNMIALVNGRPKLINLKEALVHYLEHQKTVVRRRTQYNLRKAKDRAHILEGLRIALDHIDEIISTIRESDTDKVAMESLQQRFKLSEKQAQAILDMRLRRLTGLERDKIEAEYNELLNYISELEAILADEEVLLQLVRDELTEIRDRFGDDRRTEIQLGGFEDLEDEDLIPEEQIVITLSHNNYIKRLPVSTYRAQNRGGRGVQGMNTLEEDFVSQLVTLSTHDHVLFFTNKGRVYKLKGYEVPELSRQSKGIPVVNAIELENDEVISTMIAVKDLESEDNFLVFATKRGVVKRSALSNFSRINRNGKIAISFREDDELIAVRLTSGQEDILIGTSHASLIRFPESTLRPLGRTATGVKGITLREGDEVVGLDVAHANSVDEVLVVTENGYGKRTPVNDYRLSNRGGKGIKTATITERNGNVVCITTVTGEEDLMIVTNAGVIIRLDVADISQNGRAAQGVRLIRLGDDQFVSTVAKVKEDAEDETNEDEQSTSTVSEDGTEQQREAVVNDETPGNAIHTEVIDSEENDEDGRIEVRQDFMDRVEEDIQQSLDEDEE

For orientation: inhibition means the relative decrease from the control value, in per cent. As to `CCNC(=O)Nc1nc2nc(-n3cnc(C(=O)NC4CC4)c3)ccc2[nH]1` [Ia-187], the inhibition at 10 µM in test [1] was > 75%. The MIC in the test with test bacteria fell in the range of 10 to 40 µg/mL (≈ 28.2 to 113 µM).
On the same counts, the results for `C=CCNC(=O)c1cn(-c2ccc3[nH]c(NC(=O)NCC)nc3c2)cn1` [Ia-188] are > 75% and < 10 µg/mL.

(Values after US6632809B2, “Gyrase inhibitors and uses thereof” (Vertex Pharmaceuticals Incorporated, priority 2000, dated 2003).)
